Experimental data as given in US12709608B2, “4-amino pyrimidine compounds for the treatment of cancer” (University of Rochester, priority 2021, dated 2026).
Entries after “also recorded” stand apart in the source; their conditions may differ. Like-named read-outs stand apart in the source and are kept apart here.

Key:
[1] = Biodistribution in brainstem and serum of mice, HPLC analysis of tissue extracts; type: in vivo; conditions: for concentration at 3 h: ip, 3 hours after intraperitoneal injection
Text: Study of JMJD3 demethylase inhibitors. […] Because of its promising anti-tumor activities, GSK-J4 has been used to treat many kinds of tumors in preclinical models including T-cell acute lymphoblastic leukemia, acute myeloid leukemia, diffuse large B-cell lymphoma, neuroblastoma, prostate cancer, gastric cancer, and DIPG. The major challenge of GSK-J4 in clinical development is that GSK-J4 is a prodrug and is rapidly converted to the active drug […] in vivo (FIG. 1). […] The development of novel compounds such as UR-8 offered desirable properties including good cellular and brain transport which is essential to improving in vivo efficacy.
UR-8 was administered by intraperitoneal injection to mice that were euthanized at 3 hours following UR-8 administration. Their brains were immediately resected, the brainstem was dissected from the surrounding brain, and the serum was collected by cardiac puncture. […] GSK-J1 was highly detected in either serum and brainstem in the mice treated with GSK-J4 in compared to that of the mice treated with UR-8. GSK-J4 was not detected in any specimens from mice treated with GSK-J4.

[2] = test system: SF8628 intracranial (brainstem) tumor; experiment: In vivo anti-tumor activity in patient-derived K27M DIPG xenografted mice; conditions: for Survival, log-rank test P, control vs. compound: vs vehicle control (DMSO)
Procedure: Mice with SF8628 intracranial (brainstem) tumor were randomized to four treatment groups: vehicle control (DMSO, n=7), GSK-J4 (100 mg/kg/day for 10 consecutive days, n=8), UR-8 (100 mg/kg/day for 10 consecutive days, n=8), and UR-17 (100 mg/kg/day for 10 consecutive days, n=8). FIG. 3 (A) Upper: Growth plots for intracranial tumors using tumor bioluminescence values. Lower: Corresponding tumor bioluminescence intensity overlay images for representative vehicle-treated, GSK-J4, UR-17, and UR-8-treated mice. FIG. 3 (B) Corresponding survival plots for each experiment. Statistical analysis was performed using a log-rank test: control vs. GSK-J4, **P=0.0094; control vs. UR-8, ***P=0.0002; control vs. UR-17, ***P=0.0008; GSK-J4 vs. UR-8, ***P=0.0008; UR-8 vs. UR-17, *P=0.0197. FIG. 3 (c) Effects of UR-8 on cell proliferation.
UR-8 inhibited tumor growth and prolonged survival of mice bearing human DIPG xenografts—Based on the biological effects of UR-analogs in vitro, it was hypothesized that UR-analogs would suppress tumor growth and increase survival in mice with orthotopic (brainstem) human DIPG xenografts. To determine in vivo anti-tumor activity of UR-analogs, the mice were implanted with SF8628 DIPG cells in the brainstem and were treated with 100 mg/kg of GSK-J4, UR-8, and UR-17 for 10 consecutive days.

[3] = test system: H3K27M DIPG cell lines (H3.3 K27M SF8628, H3.3 K27M DIPG-007, and H3.1 K27M SU-DIPGIV); experiment: Inhibition of DIPG cell growth (cytotoxic activity), 72 hours treatment; type: cell-based; conditions: Homo sapiens; three H3K27M mutant DIPG cell lines (SF8628, DIPG-007, SU-DIPGIV), treated for 72 hours
Procedure: Specifically, UR-8 and UR-17 induced dose dependent inhibition of the growth of K27M DIPG cells—To determine the potential of the UR-analog series, UR-8 and UR-17 were selected for initial studies on DIPG cell growth. Thus, three H3K27M DIPG cell lines (H3.3 K27M SF8628, H3.3 K27M DIPG-007, and H3.1 K27M SU-DIPGIV) were treated with GSK-J4 (R&D System), UR-8, and UR-17 for 72 hours.

[4] = SF8628 brainstem xenograft, 100 mg/kg for 10 consecutive days
[5] = SF8628 brainstem xenograft, 100 mg/kg/day for 10 consecutive days

| Compound | GSK-J1 concentration, Brainstem ([1]; GSK-J4 treated mice, analyte GSK-J1, 3 hours after administration) [ng/mL] | GSK-J1 concentration, Serum ([1]; GSK-J4 treated mice, analyte GSK-J1, 3 hours after administration, intraperitoneal) [ng/mL] | Brain penetration ratio (GSK-J1) ([1]; brainstem concentration as % of serum concentration, analyte GSK-J1, GSK-J4 treated mice) [%] | Species found in brainstem tissue after GSK-J4 treatment ([1]; mice euthanized at 3 hours after completion of GSK-J4 treatment) | GSK-J4 detection in specimens from mice treated with GSK-J4 ([1]; serum and brainstem, HPLC) | Survival benefit of treated mice [2, 4] | Tumor growth rate (bioluminescence monitoring) [2, 4] | Survival, log-rank test P, control vs. compound [2, 5] | IC50 [3] [µM] | Brain penetration ratio (UR-8) ([1]; brainstem concentration as % of serum concentration, analyte UR-8, UR-8 treated mice) [%] | Kp at 3 h ([1]; mouse, brainstem relative to serum, intraperitoneal, brainstem concentration as % of serum concentration, analyte UR-8, UR-8 treated mice, read-out: Brain penetration ratio (UR-8)) | concentration at 3 h ([1]; mouse, brainstem, UR-8 treated mice, analyte UR-8, read-out: UR-8 concentration, Brainstem) [ng/mL] | concentration at 3 h ([1]; mouse, serum, UR-8 treated mice, analyte UR-8, read-out: UR-8 concentration, Serum) [ng/mL] | Survival, log-rank test P, GSK-J4 vs. UR-8 [2, 5] | Survival, log-rank test P, UR-8 vs. UR-17 [2, 5] | Therapeutic benefit compared with the other compounds ([2]; intracranial (brainstem) human DIPG xenografted mice, comparison with GSK-J4 / UR-17) |
| --- | --- | --- | --- | --- | --- | --- | --- | --- | --- | --- | --- | --- | --- | --- | --- | --- |
| CCOC(=O)CCNc1cc(N2CCc3ccccc3CC2)nc(-c2ccccn2)n1 [GSK-J4] | 141.5 ± 50.2 | 31250 ± 18879 | 0.61 ± 0.53 | only GSK-J1 | not detected | substantial survival benefit | reduced tumor growth rate | 0.0094 | – | – | – | – | – | – | – | – |
| OCCCNc1cc(N2CCc3ccccc3CC2)nc(-c2ccccn2)n1 [UR-8, 3-((2-(pyridin-2-yl)-6-(1,2,4,5-tetrahydro-3H-benzo[d]azepin-3-yl)pyrimidin-4-yl)amino)propan-1-ol] | – | – | – | – | – | significant benefit | – | 0.0002 | 4 to 6 | 8.77 ± 2.37 | 0.0877 ± 0.0237 | 410 ± 244 | 4460 ± 1580 | 0.0008 | 0.0197 | outperforming either GSK-J4 or UR-17; also recorded: greater anti-tumor activity and survival benefit than that obtained by GSK-J4 treatment |
